Values quoted from earlier work in patent US20260207703A1 (priority 2023, published 2026).

Details: in vivo

Row | SMILES | half-life
1 | C=CCN1CC[C@]23c4c5ccc(O)c4O[C@H]2C(=O)CC[C@@]3(O)[C@H]1C5 [Naloxone] | ~ 1 hr.
2 | C=C1CC[C@@]2(O)[C@H]3Cc4ccc(O)c5c4[C@@]2(CCN3CC2CC2)[C@H]1O5 [nalmefene, 17-cyclopropylmethyl-4,5α-epoxy-6-methylenemorphinan-3,14-diol] | 8 to 11 h
